Here are results for two compounds from ChEMBL document CHEMBL5543151, “Rational Design of a Novel Class of Human ClpP Agonists through a Ring-Opening Strategy with Enhanced Antileukemia Activity” (J Med Chem, 2024).

The structures appear in SMILES notation.

The target of series [1] is ATP-dependent Clp protease proteolytic subunit, mitochondrial (Homo sapiens, UniProt Q16740). The note with it: filed as agonist, dose 10.0 µM, time 2.0 hrs.
A short description of series [2]: Acute toxicity in BALB/c mouse assessed as TRIGL biochemical parameter at 25 to 100 mg/kg, ip measured for 2 weeks. In kind it is organism-based. The conditions noted are these: in vivo, 336 h, dose 25-100 mg/kg.
Series [3] can be described thus: Clearance in Sprague-Dawley rat at 5 mg/kg, iv measured upto 12 hrs by LC-MS analysis. It is filed as ADME, organism-based. The note with it: in vivo.
A short description of series [4]: Toxicity in BALB/c nude mouse transplanted with human MV4-11 cells assessed as pathological damage in kidney at 2.5 to 10 mg/kg, ip measured for 17 days by hematoxylin and eosin staining based assay. In kind it is organism-based. The note with it: in vivo, 408 h, dose 2.5-10 mg/kg, time 17 day.
Series [5] relates to MV4-11. Kind of series: In vivo anti-leukemia activity against human MV4-11 cells transplanted in BALB/c nude mouse assessed as reduction in tumor weight at 10 mg/kg, ip twice weekly treatment started 7 th day of cell inoculum till 18 th day. It is filed as functional. Also noted: scale not given: the % may be the effect or the level left. The conditions noted are these: time 11 day.

A short description of series [6]: Toxicity in BALB/c nude mouse transplanted with human MV4-11 cells assessed as change in body weight at 2.5 to 10 mg/kg, ip measured for 17 days. It is filed as organism-based. The conditions noted are these: in vivo, 408 h, dose 2.5-10 mg/kg, time 17 day.
Series [7] can be described thus: AUC(0 to 12hrs) in Sprague-Dawley rat at 15 mg/kg, po measured upto 12 hrs by LC-MS analysis. The note with it: in vivo. It is filed as ADME, organism-based.
The nature of series [8]: AUC(0 to 12hrs) in Sprague-Dawley rat at 5 mg/kg, iv measured upto 12 hrs by LC-MS analysis. In kind it is ADME, organism-based. The conditions noted are these: in vivo.
Series [9] in a line: Half life in Sprague-Dawley rat at 5 mg/kg, iv measured upto 12 hrs by LC-MS analysis. In kind it is ADME, organism-based. The note with it: in vivo.
Series [10] in a line: Acute toxicity in BALB/c mouse assessed as pathological changes in lung at 25 to 100 mg/kg, ip measured for 2 weeks by hematoxylin and eosin staining based assay. In kind it is organism-based. The conditions noted are these: in vivo, 336 h, dose 25-100 mg/kg.
Series [11] is described as follows: Toxicity in BALB/c nude mouse transplanted with human MV4-11 cells assessed as pathological damage in heart at 2.5 to 10 mg/kg, ip measured for 17 days by hematoxylin and eosin staining based assay. In kind it is organism-based. The conditions noted are these: in vivo, 408 h, dose 2.5-10 mg/kg, time 17 day.
A short description of series [12]: Acute toxicity in BALB/c mouse assessed as CREJ2 biochemical parameter at 25 to 100 mg/kg, ip measured for 2 weeks. It is filed as organism-based. The conditions noted are these: in vivo, 336 h, dose 25-100 mg/kg.
The subject of series [13] is MV4-11. Kind of series: In vivo anti-leukemia activity against human MV4-11 cells transplanted in BALB/c nude mouse assessed as reduction in tumor volume at 10 mg/kg, ip twice weekly treatment started 7 th day of cell inoculum till 18 th day. In kind it is functional. Also noted: scale not given: the % may be the effect or the level left. The note with it: time 11 day.

Series [14] in a line: MRT (0 to 12hrs) in Sprague-Dawley rat at 5 mg/kg, iv measured upto 12 hrs by LC-MS analysis. The note with it: in vivo. In kind it is ADME, organism-based.
Series [15] can be described thus: Acute toxicity in BALB/c mouse assessed as ALB2 biochemical parameter at 25 to 100 mg/kg, ip measured for 2 weeks. In kind it is organism-based. The conditions noted are these: in vivo, 336 h, dose 25-100 mg/kg.
Series [16] can be described thus: Cmax in Sprague-Dawley rat at 15 mg/kg, po measured upto 12 hrs by LC-MS analysis. It is filed as ADME, organism-based. The conditions noted are these: in vivo.
The nature of series [17]: MRT (0 to 12hrs) in Sprague-Dawley rat at 15 mg/kg, po measured upto 12 hrs by LC-MS analysis. The note with it: in vivo. It is filed as ADME, organism-based.
Series [18] in a line: Acute toxicity in BALB/c mouse assessed as adverse effect at 25 to 100 mg/kg, ip measured for 2 weeks. It is filed as organism-based. The note with it: in vivo, 336 h, dose 25-100 mg/kg.
The nature of series [19]: Acute toxicity in BALB/c mouse assessed as pathological changes in kidney at 25 to 100 mg/kg, ip measured for 2 weeks by hematoxylin and eosin staining based assay. In kind it is organism-based. The conditions noted are these: in vivo, 336 h, dose 25-100 mg/kg.
A short description of series [20]: Acute toxicity in BALB/c mouse assessed as UA2 biochemical parameter at 25 to 100 mg/kg, ip measured for 2 weeks. In kind it is organism-based. The conditions noted are these: in vivo, 336 h, dose 25-100 mg/kg.
Series [21] has as its system MV4-11. Kind of series: In vivo anti-leukemia activity against human MV4-11 cells transplanted in BALB/c nude mouse assessed as reduction in tumor volume at 2.5 mg/kg, ip twice weekly treatment started 7 th day of cell inoculum till 18 th day. In kind it is functional. Also noted: scale not given: the % may be the effect or the level left. The conditions noted are these: time 11 day.

Series [22] in a line: Half life in Sprague-Dawley rat at 15 mg/kg, po measured upto 12 hrs by LC-MS analysis. In kind it is ADME, organism-based. The note with it: in vivo.
Series [23] can be described thus: Cmax in Sprague-Dawley rat at 5 mg/kg, iv measured upto 12 hrs by LC-MS analysis. It is filed as ADME, organism-based. The conditions noted are these: in vivo.
Series [24] deals with MV4-11. Kind of series: In vivo anti-leukemia activity against human MV4-11 cells transplanted in BALB/c nude mouse assessed as reduction in tumor weight at 5 mg/kg, ip twice weekly treatment started 7 th day of cell inoculum till 18 th day. In kind it is functional. Also noted: scale not given: the % may be the effect or the level left. The conditions noted are these: time 11 day.

Series [25] is described as follows: Tmax in Sprague-Dawley rat at 15 mg/kg, po measured upto 12 hrs by LC-MS analysis. In kind it is ADME, organism-based. The conditions noted are these: in vivo.
A short description of series [26]: Acute toxicity in BALB/c mouse assessed as pathological changes in heart at 25 to 100 mg/kg, ip measured for 2 weeks by hematoxylin and eosin staining based assay. It is filed as organism-based. The conditions noted are these: in vivo, 336 h, dose 25-100 mg/kg.
Series [27] can be described thus: Acute toxicity in BALB/c mouse assessed as ASTL biochemical parameter at 25 to 100 mg/kg, ip measured for 2 weeks. In kind it is organism-based. The note with it: in vivo, 336 h, dose 25-100 mg/kg.
Series [28] is described as follows: Acute toxicity in BALB/c mouse assessed as pathological changes in liver at 25 to 100 mg/kg, ip measured for 2 weeks by hematoxylin and eosin staining based assay. In kind it is organism-based. The note with it: in vivo, 336 h, dose 25-100 mg/kg.
The nature of series [29]: Toxicity in BALB/c nude mouse transplanted with human MV4-11 cells assessed as pathological damage in spleen at 2.5 to 10 mg/kg, ip measured for 17 days by hematoxylin and eosin staining based assay. The note with it: in vivo, 408 h, dose 2.5-10 mg/kg, time 17 day. It is filed as organism-based.
Series [30] can be described thus: Acute toxicity in BALB/c mouse assessed as pathological changes in spleen at 25 to 100 mg/kg, ip measured for 2 weeks by hematoxylin and eosin staining based assay. The conditions noted are these: in vivo, 336 h, dose 25-100 mg/kg. It is filed as organism-based.
In series [31] the test system is MV4-11. Kind of series: In vivo anti-leukemia activity against human MV4-11 cells transplanted in BALB/c nude mouse assessed as reduction in tumor volume at 5 mg/kg, ip twice weekly treatment started 7 th day of cell inoculum till 18 th day. It is filed as functional. Also noted: scale not given: the % may be the effect or the level left. The conditions noted are these: time 11 day.

The nature of series [32]: Toxicity in BALB/c nude mouse transplanted with human MV4-11 cells assessed as pathological damage in liver at 2.5 to 10 mg/kg, ip measured for 17 days by hematoxylin and eosin staining based assay. In kind it is organism-based. The note with it: in vivo, 408 h, dose 2.5-10 mg/kg, time 17 day.
Series [33] is described as follows: Acute toxicity in BALB/c mouse assessed as ALP2L biochemical parameter at 25 to 100 mg/kg, ip measured for 2 weeks. In kind it is organism-based. The note with it: in vivo, 336 h, dose 25-100 mg/kg.
Series [34] can be described thus: Acute toxicity in BALB/c mouse assessed as LDHI2 biochemical parameter at 25 to 100 mg/kg, ip measured for 2 weeks. In kind it is organism-based. The conditions noted are these: in vivo, 336 h, dose 25-100 mg/kg.
The nature of series [35]: Acute toxicity in BALB/c mouse assessed as vTP2 biochemical parameter at 25 to 100 mg/kg, ip measured for 2 weeks. It is filed as organism-based. The conditions noted are these: in vivo, 336 h, dose 25-100 mg/kg.
Series [36] can be described thus: Acute toxicity in BALB/c mouse assessed as UREAL biochemical parameter at 25 to 100 mg/kg, ip measured for 2 weeks. In kind it is organism-based. The conditions noted are these: in vivo, 336 h, dose 25-100 mg/kg.
The nature of series [37]: Toxicity in BALB/c nude mouse transplanted with human MV4-11 cells assessed as pathological damage in lung at 2.5 to 10 mg/kg, ip measured for 17 days by hematoxylin and eosin staining based assay. It is filed as organism-based. The note with it: in vivo, 408 h, dose 2.5-10 mg/kg, time 17 day.
Series [38] in a line: Acute toxicity in BALB/c mouse assessed as ALTL biochemical parameter at 25 to 100 mg/kg, ip measured for 2 weeks. It is filed as organism-based. The conditions noted are these: in vivo, 336 h, dose 25-100 mg/kg.
The nature of series [39]: Bioavailability in Sprague-Dawley rat at 5 mg/kg, iv measured upto 12 hrs by LC-MS analysis. In kind it is ADME, organism-based. The conditions noted are these: in vivo.
Series [40] relates to MV4-11. Kind of series: In vivo anti-leukemia activity against human MV4-11 cells transplanted in BALB/c nude mouse assessed as reduction in tumor weight at 2.5 mg/kg, ip twice weekly treatment started 7 th day of cell inoculum till 18 th day. It is filed as functional. Also noted: scale not given: the % may be the effect or the level left. The note with it: time 11 day.

ATP-dependent Clp protease proteolytic subunit, mitochondrial, sequence (Q16740 whole entry): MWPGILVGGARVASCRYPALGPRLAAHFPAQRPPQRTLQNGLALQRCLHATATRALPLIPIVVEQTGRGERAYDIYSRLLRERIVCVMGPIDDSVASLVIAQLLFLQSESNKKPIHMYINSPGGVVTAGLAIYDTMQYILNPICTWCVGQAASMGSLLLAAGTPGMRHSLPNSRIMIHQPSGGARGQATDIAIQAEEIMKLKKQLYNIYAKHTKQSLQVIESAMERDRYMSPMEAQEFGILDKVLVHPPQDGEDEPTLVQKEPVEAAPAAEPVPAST

In the case of `N#Cc1cccc(CN2CCc3[nH]c(NCc4ccc(F)cc4)nc(=O)c3C2)c1`, the ΔTm in series [1] was 18.3 °C.

Turning to `Cl.N#Cc1cccc(CN2CCc3[nH]c(NCc4ccc(F)cc4)nc(=O)c3C2)c1`, the Activity entry in series [2] is reported as “Non-Toxic”; in [4], “Non-Toxic”; in the series on MV4-11 [5], 88.88%; in [6], “Non-Toxic”; in series [10], “Non-Toxic”; in [11], “Non-Toxic”. Moreover, the Activity entry in [12] is listed as “Non-Toxic”; in the series on MV4-11 [13], 88.29%; in series [15] it was “Non-Toxic”; in series [18], “Non-Toxic”; in [19] it was “Non-Toxic”; in [20], “Non-Toxic”. In addition, the Activity in the series on MV4-11 [21] is listed as 20.52%; with MV4-11 [24] it was 67%; in series [26], “Non-Toxic”; in [27] it was “Non-Toxic”; in [28] it was “Non-Toxic”; in series [29] it was “Non-Toxic”. Further, the Activity entry is “Non-Toxic” in series [30]; 75.3% in the series on MV4-11 [31]; “Non-Toxic” in [32]; “Non-Toxic” in [33]; “Non-Toxic” in series [34]; “Non-Toxic” in series [35]. Further, the Activity result in series [36] was “Non-Toxic”; in [37], “Non-Toxic”; in [38] it was “Non-Toxic”; in the series with MV4-11 [40] it was 20.35%. The clearance in series [3] is 58.3 mL/min/kg. The AUC(0-t) at 12 h in series [7] was 780 ng·h/mL; in series [8] it was 791 ng·h/mL. Further, the half-life in series [9] was 294 min; in series [22], 234 min. Also, the MRT last at 12 h in series [14] is 2.8 h; in series [17] it was 2.4 h. The Cmax in series [16] was found to be 332 ng/mL; in [23] it was 869 ng/mL. In series [25], the Tmax turned out to be 1 h. This compound also yielded a bioavailability in series [39] of 32.7%.
